Calls of active or inactive are those of the source.
Key:
[1] = biological target: Prothrombin (Bos taurus, UniProt P00735); assay: thrombin protease inhibitors – biochemical, fluorescence polarization, uHTS hits, dose response (AID 602369); format: functional
[2] = biological target: 72 kDa type IV collagenase (Homo sapiens, UniProt P08253); assay: Dose Response validation of uHTS RPN11 inhibitor hits using a MMP-2 Fluorescence assay.; format: functional
[3] = biological target: 26S proteasome non-ATPase regulatory subunit 14 (Homo sapiens, UniProt O00487); assay: inhibition of proteasome subunit RPN11 – biochemical, fluorescence polarization, uHTS hits, confirmation (AID 602368); format: functional
[4] = biological target: Dual specificity tyrosine-phosphorylation-regulated kinase 1A (Rattus norvegicus, UniProt Q63470); format: biochemical, Homo sapiens
[5] = viability of PTEN-deleted HCT116 cells – cell-based, HCT116 PTEN knockout, dose response (AID 1047); format: functional;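 also: HCT116 colon tumor cells with PTEN knocked out; cells exposed to compound for 60 hours before readout; potency for loss of cell viability measured by luminescence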
[6] = system: Vero; assay: cells; format: functional; conditions: Chlorocebus sabaeus
[7] = viability of HCT116 lacking mutant beta-catenin – cell-based, human colon tumor, dose response (AID 1045); format: functional;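 also: HCT116 colon tumor cells with beta catenin knocked out; cells exposed to compound for 60 hours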
[8] = biological target: T1, Caspase-3 (Homo sapiens, UniProt P42574); format: functional;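 also: Dose-response selectivity test against caspase-3 for candidate inhibitors of sentrin-specific proteases (SENPs)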
T1 sequence (P42574 whole entry): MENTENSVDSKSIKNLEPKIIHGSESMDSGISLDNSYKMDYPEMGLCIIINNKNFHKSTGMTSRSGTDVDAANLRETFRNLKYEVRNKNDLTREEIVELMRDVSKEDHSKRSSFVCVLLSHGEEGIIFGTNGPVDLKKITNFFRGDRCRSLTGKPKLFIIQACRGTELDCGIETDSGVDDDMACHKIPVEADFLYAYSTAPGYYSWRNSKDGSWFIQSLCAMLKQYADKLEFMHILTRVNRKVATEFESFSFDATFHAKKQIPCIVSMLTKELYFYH

[9] = biological target: T2, Sentrin-specific protease 8 (Homo sapiens, UniProt Q96LD8); format: functional;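 also: luminescence read-out of SENP8 inhibition, dose-response confirmation following an ultra-high-throughput screen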
T2 sequence (Q96LD8 whole entry): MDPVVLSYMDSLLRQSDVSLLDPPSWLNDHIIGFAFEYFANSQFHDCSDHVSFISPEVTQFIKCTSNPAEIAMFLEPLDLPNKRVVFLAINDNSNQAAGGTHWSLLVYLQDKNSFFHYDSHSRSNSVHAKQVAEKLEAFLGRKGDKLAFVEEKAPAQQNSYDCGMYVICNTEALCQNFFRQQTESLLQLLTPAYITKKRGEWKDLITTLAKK

[10] = biological target: T3, Sentrin-specific protease 7 (Homo sapiens, UniProt Q9BQF6); format: functional;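 also: Luminescence-based dose-response confirmation of ultra-high-throughput screening hits, measuring inhibition of SENP7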
T3 sequence (Q9BQF6 whole entry): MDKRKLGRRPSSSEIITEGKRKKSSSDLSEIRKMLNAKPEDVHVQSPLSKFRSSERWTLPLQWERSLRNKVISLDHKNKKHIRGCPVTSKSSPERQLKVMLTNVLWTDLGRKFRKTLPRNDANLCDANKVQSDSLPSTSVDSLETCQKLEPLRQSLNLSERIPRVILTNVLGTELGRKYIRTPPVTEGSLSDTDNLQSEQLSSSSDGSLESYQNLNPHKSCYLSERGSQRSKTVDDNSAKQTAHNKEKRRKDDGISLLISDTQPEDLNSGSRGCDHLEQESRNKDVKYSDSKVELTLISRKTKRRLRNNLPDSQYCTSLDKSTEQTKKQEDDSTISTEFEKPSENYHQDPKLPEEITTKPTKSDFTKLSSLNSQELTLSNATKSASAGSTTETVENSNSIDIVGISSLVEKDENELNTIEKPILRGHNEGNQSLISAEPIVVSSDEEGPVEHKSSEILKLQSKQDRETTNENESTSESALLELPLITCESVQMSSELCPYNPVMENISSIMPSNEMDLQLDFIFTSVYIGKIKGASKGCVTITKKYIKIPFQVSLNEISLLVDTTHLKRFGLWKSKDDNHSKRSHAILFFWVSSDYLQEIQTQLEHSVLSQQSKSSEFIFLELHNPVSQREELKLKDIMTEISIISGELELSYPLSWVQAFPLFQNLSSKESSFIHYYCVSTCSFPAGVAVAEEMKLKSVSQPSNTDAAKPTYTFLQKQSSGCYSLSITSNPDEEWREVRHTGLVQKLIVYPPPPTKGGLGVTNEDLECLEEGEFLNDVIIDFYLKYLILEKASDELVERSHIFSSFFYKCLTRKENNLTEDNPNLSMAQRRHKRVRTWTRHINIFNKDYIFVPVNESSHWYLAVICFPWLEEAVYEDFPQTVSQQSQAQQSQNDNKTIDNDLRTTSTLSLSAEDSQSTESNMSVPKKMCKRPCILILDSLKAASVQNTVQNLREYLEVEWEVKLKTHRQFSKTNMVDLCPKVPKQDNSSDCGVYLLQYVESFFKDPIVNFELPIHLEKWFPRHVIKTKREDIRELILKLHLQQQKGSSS

[11] = biological target: T4, Sentrin-specific protease 6 (Homo sapiens, UniProt Q9GZR1); format: functional;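 also: Luminescence-based dose-response confirmatory assay of SENP6 inhibition, following up an ultra-high-throughput screen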
T4 sequence (Q9GZR1 whole entry): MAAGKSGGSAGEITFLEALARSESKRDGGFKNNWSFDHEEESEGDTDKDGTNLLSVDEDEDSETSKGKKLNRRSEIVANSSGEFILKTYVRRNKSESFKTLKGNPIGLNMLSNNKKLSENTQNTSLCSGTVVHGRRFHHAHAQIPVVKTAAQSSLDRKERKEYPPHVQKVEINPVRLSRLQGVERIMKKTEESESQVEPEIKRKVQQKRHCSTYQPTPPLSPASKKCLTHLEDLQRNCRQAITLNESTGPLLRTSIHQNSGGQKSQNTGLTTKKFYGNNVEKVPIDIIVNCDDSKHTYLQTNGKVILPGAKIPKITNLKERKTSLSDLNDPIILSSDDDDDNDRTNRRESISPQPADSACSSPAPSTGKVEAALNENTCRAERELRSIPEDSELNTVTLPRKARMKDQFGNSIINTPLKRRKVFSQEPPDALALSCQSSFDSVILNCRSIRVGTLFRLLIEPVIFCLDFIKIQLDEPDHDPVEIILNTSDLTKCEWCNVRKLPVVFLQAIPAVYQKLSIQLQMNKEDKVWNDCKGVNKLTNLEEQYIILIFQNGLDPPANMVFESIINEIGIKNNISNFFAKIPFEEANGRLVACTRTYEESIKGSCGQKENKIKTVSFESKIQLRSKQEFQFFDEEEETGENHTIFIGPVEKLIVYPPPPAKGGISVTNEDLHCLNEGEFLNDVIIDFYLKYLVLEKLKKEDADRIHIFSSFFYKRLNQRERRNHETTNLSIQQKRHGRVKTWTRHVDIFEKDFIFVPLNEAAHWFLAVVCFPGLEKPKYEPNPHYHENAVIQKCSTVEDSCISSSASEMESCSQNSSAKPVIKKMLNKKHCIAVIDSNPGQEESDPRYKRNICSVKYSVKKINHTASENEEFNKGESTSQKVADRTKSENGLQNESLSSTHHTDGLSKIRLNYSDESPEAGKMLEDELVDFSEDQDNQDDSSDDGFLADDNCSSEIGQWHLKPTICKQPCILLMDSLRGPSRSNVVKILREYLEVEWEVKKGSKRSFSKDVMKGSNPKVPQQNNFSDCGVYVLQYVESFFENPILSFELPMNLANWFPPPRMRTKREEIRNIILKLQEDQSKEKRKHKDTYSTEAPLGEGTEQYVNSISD

[12] = biological target: T5, Cysteine protease ATG4B (Homo sapiens, UniProt Q9Y4P1); format: functional;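 also: Fluorescence-based dose-response confirmation assay measuring inhibition of ATG4B activity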
T5 sequence (Q9Y4P1 whole entry): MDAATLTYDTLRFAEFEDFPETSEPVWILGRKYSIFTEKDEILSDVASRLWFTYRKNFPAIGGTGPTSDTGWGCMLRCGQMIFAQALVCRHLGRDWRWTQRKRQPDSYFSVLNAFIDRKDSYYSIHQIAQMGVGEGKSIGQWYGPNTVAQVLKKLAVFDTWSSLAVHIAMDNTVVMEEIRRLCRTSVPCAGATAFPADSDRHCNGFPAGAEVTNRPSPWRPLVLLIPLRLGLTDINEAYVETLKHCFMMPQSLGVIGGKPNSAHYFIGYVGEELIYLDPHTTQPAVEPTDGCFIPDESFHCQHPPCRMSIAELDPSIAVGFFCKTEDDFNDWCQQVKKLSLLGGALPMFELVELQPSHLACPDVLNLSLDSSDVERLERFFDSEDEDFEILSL

[13] = biological target: T6, DNA repair and recombination protein RAD54-like (Homo sapiens, UniProt Q92698); assay: RAD54 Holliday junction migration blockers – biochemical, fluorescence, cherry-picked samples, dose series, confirmation (AID 651657); format: functional
T6 sequence (Q92698 whole entry): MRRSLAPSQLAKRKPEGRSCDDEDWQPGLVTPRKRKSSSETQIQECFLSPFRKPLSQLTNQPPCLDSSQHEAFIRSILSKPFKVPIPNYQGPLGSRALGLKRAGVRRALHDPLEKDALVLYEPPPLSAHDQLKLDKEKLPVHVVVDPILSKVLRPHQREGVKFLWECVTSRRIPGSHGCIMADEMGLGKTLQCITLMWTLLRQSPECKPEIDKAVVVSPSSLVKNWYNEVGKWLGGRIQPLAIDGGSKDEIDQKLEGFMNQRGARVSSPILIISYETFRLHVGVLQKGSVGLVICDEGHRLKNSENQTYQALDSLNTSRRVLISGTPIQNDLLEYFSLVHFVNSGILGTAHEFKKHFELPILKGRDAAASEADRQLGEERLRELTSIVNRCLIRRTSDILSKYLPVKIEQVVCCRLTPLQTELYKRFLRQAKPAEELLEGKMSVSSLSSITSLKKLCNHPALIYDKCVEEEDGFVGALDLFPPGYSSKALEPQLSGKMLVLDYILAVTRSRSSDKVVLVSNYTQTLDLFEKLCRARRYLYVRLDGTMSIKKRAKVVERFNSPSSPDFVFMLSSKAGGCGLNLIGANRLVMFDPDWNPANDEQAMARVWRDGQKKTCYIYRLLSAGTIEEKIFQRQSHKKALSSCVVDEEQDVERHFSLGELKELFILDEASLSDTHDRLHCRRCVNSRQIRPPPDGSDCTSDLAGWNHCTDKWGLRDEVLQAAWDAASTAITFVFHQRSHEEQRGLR

[14] = biological target: Phospholipase A2 (Homo sapiens, UniProt P04054); format: functional;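 also: confirmatory dose-response counterscreen on phospholipase A2, testing hits that came from an ultra-high-throughput screen for ATG4B inhibitors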
[15] = NIH3T3 cell viability loss – ATP luminescence, mouse fibroblasts, counter-screen, dose response (AID 2010); format: functional, cell-based;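 also: cells exposed to compound for about 90 hours before reading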
[16] = Trypanosoma cruzi growth suppression in host cells – NIH3T3 host cells, beta-gal luminescence, confirmation (AID 2044); format: functional, cell-based;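 also: intracellular parasites grown in NIH/3T3 mouse fibroblasts as host cells; luminescent beta-galactosidase reporter signal from transgenic T. cruzi replicating inside host cells; inhibitors lower the luminescence signal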

Sequence of 72 kDa type IV collagenase (P08253 whole entry): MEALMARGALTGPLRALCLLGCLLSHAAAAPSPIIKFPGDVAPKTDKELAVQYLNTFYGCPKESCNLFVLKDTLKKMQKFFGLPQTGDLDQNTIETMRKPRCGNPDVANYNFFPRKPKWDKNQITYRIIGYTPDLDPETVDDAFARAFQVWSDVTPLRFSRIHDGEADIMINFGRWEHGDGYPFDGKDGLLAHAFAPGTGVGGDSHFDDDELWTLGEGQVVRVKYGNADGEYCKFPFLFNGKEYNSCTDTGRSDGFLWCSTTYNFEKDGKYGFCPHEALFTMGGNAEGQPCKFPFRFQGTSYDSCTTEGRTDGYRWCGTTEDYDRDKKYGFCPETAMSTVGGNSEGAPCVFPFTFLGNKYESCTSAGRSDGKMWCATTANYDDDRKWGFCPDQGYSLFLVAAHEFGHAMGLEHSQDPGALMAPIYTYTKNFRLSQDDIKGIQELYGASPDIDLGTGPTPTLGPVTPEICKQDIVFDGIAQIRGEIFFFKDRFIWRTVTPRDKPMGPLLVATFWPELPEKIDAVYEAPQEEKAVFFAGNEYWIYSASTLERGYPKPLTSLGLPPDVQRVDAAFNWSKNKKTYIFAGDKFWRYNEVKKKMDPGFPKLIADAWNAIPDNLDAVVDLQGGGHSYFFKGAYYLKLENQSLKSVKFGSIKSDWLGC
Sequence of Phospholipase A2 (P04054 whole entry): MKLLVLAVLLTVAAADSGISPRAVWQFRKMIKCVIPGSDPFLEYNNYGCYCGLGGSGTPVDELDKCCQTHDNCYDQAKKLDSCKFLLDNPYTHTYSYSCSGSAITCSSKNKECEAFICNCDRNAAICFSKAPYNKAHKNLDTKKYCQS
Sequence of 26S proteasome non-ATPase regulatory subunit 14 (O00487 whole entry): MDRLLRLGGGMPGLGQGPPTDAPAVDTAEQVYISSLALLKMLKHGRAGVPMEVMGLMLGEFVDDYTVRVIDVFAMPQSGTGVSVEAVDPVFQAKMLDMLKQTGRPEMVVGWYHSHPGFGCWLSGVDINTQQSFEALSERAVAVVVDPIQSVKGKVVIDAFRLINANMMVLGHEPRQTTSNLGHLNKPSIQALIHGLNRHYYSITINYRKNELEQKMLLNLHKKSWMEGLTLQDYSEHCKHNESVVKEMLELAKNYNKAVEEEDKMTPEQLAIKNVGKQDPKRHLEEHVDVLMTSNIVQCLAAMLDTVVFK

Cc1occc1C(=O)/C(C#N)=C/c1ccc(O)c(Br)c1
IC50 [1]: 12.1 µM (active)
IC50 [2]: > 100 µM (inactive)
IC50 [3]: 9.83 µM (active)
AC50 [4]: 7.25 µM (active)

CCN1CCc2c(C#N)c(N3CCCCC3)nc(NCc3ccccc3)c2C1
EC50 [5]: 20.1 µM (active)
CC50 [6]: > 25 µM (active)
EC50 [7]: 17.9 µM (active)

COc1c(O)ccc(/C=C(\C#N)c2nc3ccccc3[nH]2)c1[N+](=O)[O-]
IC50 [8]: 31.1 µM (active)
IC50 [9]: 35.9 µM (active)
IC50 [10]: 15.1 µM (active)
AC50 [4]: 2.77 µM (active)
IC50 [11]: 25.9 µM (active)

Cc1ccc2nc3c(c(Nc4ccc5c(c4)OCCO5)c2c1)CCC3
IC50 [12]: 10.7 µM (active)
AC50 [13]: 54.9 µM (active)
IC50 [14]: 7.53 µM (active)

Cc1ccc(Sc2nnc(Cc3ccccc3)c3ccccc23)cc1
EC50 [15]: > 60 µM (not active)
CC50 [6]: > 25 µM (active)
EC50 [16]: 1.95 µM (active)
